{
  "source": "patent US20220402998A1",
  "about": "“PROTEASE SWITCH FOR DUAL TARGETS CHIMERIC ANTIGEN RECEPTOR T CELL THERAPY” (priority 2019, published 2022)",
  "test_system": "NS3/4A protease domain of the CAR",
  "assay": "CAR surface expression on transduced T cells by flow cytometry with or without asunaprevir",
  "type": "cell-based, hepatitis C virus",
  "description": "For flow cytometry, cells are stained using standard procedures. Briefly, cells are suspended at a concentration of 1×10^7 cells/ml in PBS+3% FBS for analysis or in Sort Buffer (PBS, 25 mM HEPES, 1 mM EDTA, 0.1% BSA) for sorting. […] Cells are analyzed by flow cytometry using a CytoFLEX (Beckman Coulter Life Sciences, Indianapolis, Ind.) and operated under standard procedures. To enrich subpopulations of CD4+ and/or CD8+ cells, magnetically separated cells are stained with anti-CD4 and/or anti-CD8 antibodies and sorted on a FACScalibur Cell Sorter.\nAfter T cell transduction, different drugs were provided, CD19-, CD22-CAR were detected by CD19, CD22 protein through flow cytometry. Further, the biological characteristics of the dual-target switchable CAR-T cells were determined. For example, CD25 and CD69 antibodies were used to perform activation assays, CFSE for proliferation assays, CD4, CD8, CCR7 and CD45RA antibodies for determining T cell subsets, and Annexin-V for apoptosis assays. Further, cytotoxicity assays (Calcein-AM release), CD107a assay, and cytokine production detection were performed. These assays are of great importance in testing potency and defining how the switch system works.",
  "data": [
    {"smiles": "C=C[C@@H]1C[C@]1(NC(=O)[C@@H]1C[C@@H](Oc2ncc(OC)c3ccc(Cl)cc23)CN1C(=O)[C@@H](NC(=O)OC(C)(C)C)C(C)(C)C)C(=O)NS(=O)(=O)C1CC1", "note": "[asunaprevir]", "values": [
      {"measurement": "stability of CAR expression levels over time", "setting": "in the presence of asunaprevir", "result": "stable over time"},
      {"measurement": "CAR expression on T cell surface", "setting": "in the presence of asunaprevir, flow cytometry", "result": "a significant portion of T cells express on their cell surface the CAR"},
      {"measurement": "expression levels of CARs on cell surface versus concentration", "setting": "increasing concentrations of asunaprevir", "result": "increase with exposure of said T cells to increasing concentrations of asunaprevir"},
      {"measurement": "CARs on the surface of CAR-T cells after withdrawal", "setting": "withdrawal of asunaprevir for 24 hours", "result": "significant reduction of CARs on the surface of CAR-T cells"},
      {"measurement": "CARs on the surface of CAR-T cells after withdrawal", "setting": "withdrawal of asunaprevir for 48 hours", "result": "absence of CARs on CAR-T cells"}
    ]}
  ]
}
